From US8178668B2, “2-aminopyridine kinase inhibitors” (OSI Pharmaceuticals, LLC, priority 2008, dated 2012)
Counter-ions that a name gives are not always drawn.

Assays:
MET (human) = MET (human) (Homo sapiens, UniProt P08581); test: MET kinase AlphaScreen assay (Km of ATP); type: biochemical; conditions: ATP at Km; at least duplicate experiments
Procedure, shortened: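 Biotinylated poly(Glu,Tyr) (200 ng/μL) phosphorylated by MET with ATP at an enzyme-optimized level, in 50 mM HEPES pH 7.4 with Mg2+/Mn2+ and vanadate, 1% DMSO. Reaction runs 60 min at RT. PT66 AlphaScreen donor/acceptor beads are added and signal is read after 1 h.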

RON (human) = RON (human) (Homo sapiens, UniProt Q04912); test: RON kinase AlphaScreen assay (Km of ATP); type: biochemical; conditions: ATP at Km; at least duplicate experiments
Procedure, shortened: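 Human RON phosphorylated biotinylated poly(Glu,Tyr) (200 ng/μL) at Km ATP in 50 mM HEPES pH 7.4, 12.5 mM MgCl2, 1% glycerol, 0.334 mM vanadate, 1% DMSO. Reaction ran 30 min at RT after enzyme addition. Product was detected by AlphaScreen with PT66 beads after 1 h.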

Chain of RON (human) (Q04912 25-1400): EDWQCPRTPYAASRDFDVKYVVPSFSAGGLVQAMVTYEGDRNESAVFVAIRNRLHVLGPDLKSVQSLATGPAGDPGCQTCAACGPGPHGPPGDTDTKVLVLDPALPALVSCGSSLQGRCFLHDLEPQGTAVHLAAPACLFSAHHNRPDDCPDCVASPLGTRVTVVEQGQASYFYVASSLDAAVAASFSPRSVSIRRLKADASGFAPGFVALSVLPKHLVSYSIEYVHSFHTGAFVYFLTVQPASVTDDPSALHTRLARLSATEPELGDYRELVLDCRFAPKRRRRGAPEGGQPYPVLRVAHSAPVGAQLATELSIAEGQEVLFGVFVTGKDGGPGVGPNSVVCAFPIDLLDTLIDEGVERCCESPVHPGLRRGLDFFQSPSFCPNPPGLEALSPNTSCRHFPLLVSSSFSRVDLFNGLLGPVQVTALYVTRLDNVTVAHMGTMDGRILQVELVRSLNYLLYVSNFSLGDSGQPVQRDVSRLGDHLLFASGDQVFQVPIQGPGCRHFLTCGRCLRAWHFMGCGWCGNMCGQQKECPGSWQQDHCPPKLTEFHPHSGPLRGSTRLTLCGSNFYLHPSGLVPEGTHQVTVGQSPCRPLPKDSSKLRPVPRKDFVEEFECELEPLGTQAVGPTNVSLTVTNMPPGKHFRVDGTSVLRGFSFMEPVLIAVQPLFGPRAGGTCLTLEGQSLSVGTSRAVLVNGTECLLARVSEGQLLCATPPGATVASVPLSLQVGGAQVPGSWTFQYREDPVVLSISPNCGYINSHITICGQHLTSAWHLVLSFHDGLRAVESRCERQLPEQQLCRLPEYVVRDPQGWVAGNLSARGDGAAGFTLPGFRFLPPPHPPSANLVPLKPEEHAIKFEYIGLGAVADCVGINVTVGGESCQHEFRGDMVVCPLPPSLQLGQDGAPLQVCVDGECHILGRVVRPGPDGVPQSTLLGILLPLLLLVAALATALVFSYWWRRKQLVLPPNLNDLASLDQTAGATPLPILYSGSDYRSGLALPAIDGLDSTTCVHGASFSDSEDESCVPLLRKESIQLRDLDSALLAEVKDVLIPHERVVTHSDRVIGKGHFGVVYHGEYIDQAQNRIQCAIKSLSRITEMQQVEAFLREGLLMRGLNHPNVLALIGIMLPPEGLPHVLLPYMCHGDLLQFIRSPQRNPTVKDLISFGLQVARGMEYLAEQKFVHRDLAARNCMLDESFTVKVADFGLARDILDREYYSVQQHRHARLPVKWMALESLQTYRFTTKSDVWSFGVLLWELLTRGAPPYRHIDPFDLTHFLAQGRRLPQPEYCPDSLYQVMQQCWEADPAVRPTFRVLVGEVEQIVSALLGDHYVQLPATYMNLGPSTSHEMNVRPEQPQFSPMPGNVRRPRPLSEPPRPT
Chain of MET (human) (P08581 25-1390): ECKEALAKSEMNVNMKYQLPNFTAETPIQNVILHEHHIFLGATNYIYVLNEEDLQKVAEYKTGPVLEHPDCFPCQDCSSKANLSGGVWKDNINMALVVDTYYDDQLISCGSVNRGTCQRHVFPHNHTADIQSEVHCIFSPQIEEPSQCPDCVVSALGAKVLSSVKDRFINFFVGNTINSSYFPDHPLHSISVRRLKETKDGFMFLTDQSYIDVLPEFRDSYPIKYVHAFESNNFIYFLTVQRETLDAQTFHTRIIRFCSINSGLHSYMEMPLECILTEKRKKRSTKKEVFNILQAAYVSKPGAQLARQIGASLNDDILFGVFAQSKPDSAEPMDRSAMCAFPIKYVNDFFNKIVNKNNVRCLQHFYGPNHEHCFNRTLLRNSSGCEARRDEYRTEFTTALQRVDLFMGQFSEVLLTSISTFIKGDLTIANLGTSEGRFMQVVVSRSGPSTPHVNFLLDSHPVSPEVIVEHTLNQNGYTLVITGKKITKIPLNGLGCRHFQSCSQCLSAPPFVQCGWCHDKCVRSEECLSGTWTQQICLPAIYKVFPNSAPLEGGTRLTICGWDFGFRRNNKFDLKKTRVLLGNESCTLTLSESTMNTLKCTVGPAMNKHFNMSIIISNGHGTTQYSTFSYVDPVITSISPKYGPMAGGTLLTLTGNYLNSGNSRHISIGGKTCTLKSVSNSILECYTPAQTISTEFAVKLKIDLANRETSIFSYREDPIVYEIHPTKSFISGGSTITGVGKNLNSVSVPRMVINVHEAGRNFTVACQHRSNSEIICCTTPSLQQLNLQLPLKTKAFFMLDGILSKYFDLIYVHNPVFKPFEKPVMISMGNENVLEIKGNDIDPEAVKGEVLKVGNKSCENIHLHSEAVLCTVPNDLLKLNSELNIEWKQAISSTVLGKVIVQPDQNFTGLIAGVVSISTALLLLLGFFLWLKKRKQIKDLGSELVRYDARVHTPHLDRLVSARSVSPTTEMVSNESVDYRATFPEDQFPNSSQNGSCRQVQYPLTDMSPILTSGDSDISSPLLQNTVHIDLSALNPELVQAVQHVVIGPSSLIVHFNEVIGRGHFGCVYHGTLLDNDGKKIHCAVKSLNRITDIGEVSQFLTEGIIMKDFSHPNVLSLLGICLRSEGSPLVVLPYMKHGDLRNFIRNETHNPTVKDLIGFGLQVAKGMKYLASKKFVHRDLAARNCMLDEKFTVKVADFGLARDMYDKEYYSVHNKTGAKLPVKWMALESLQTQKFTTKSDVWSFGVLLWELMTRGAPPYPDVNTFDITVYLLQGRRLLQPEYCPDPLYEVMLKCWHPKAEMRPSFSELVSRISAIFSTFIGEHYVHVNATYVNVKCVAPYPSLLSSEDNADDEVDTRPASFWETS

CC(C(=O)N1CCCCC1)n1cc(-c2cnc(N)c(-c3nc4ccccc4s3)c2)cn1 (stereo not drawn) [Example 152, 2-[4-(6-Amino-5-benzothiazol-2-ylpyridin-3-yl)-pyrazol-1-yl]-1-piperidin-1-ylpropan-1-one]
IC50 (MET (human)): 1000 to 20000 nM
IC50 (RON (human)): 1000 to 20000 nM

Nc1ncc(-c2cnn(CCC(=O)N3CCCC3)c2)cc1-c1nc2ccccc2s1 [Example 153, 3-[4-(6-Amino-5-benzothiazol-2-ylpyridin-3-yl)-pyrazol-1-yl]-1-pyrrolidin-1-ylpropan-1-one]
IC50 (MET (human)): 100 to 1000 nM
IC50 (RON (human)): > 20000 nM

Nc1ncc(-c2cnn([C@@H]3CN[C@H](C(=O)O)C3)c2)cc1-c1nc2ccccc2s1 [Example 154, (2S,4S)-4-[4-(6-Amino-5-benzothiazol-2-ylpyridin-3-yl)-pyrazol-1-yl]-pyrrolidine-2-carboxylic acid]
IC50 (MET (human)): ≤ 100 nM
IC50 (RON (human)): 100 to 1000 nM

CN(C)C(=O)[C@@H]1C[C@H](n2cc(-c3cnc(N)c(-c4nc5ccccc5s4)c3)cn2)CN1 [Example 155, (2S,4S)-4-[4-(6-Amino-5-benzothiazol-2-ylpyridin-3-yl)-pyrazol-1-yl]-pyrrolidine-2-carboxylic acid dimethylamide]
IC50 (MET (human)): ≤ 100 nM
IC50 (RON (human)): 100 to 1000 nM

Nc1ncc(-c2cnn([C@@H]3CN[C@H](C(=O)N4CCCC4)C3)c2)cc1-c1nc2ccccc2s1 [Example 156, {(2S,4S)-4-[4-(6-Amino-5-benzothiazol-2-ylpyridin-3-yl)-pyrazol-1-yl]-pyrrolidin-2-yl}-pyrrolidin-1-ylmethanone]
IC50 (MET (human)): ≤ 100 nM
IC50 (RON (human)): ≤ 100 nM

Nc1ncc(-c2cnn([C@@H]3CN[C@H](C(=O)N4CCOCC4)C3)c2)cc1-c1nc2ccccc2s1 [Example 157, {(2S,4S)-4-[4-(6-Amino-5-benzothiazol-2-ylpyridin-3-yl)-pyrazol-1-yl]-pyrrolidin-2-yl}-morpholin-4-ylmethanone]
IC50 (MET (human)): ≤ 100 nM
IC50 (RON (human)): ≤ 100 nM

Nc1ncc(-c2cnn([C@@H]3CN[C@H](C(=O)N4CCCCC4)C3)c2)cc1-c1nc2ccccc2s1 [Example 158, {(2S,4S)-4-[4-(6-Amino-5-benzothiazol-2-ylpyridin-3-yl)-pyrazol-1-yl]-pyrrolidin-2-yl}-piperidin-1-ylmethanone]
IC50 (MET (human)): ≤ 100 nM
IC50 (RON (human)): ≤ 100 nM

Nc1ncc(-c2cnn([C@@H]3CN[C@H](C(=O)N4CCC(O)C4)C3)c2)cc1-c1nc2ccccc2s1 (stereo partly drawn) [Example 159, {(2S,4S)-4-[4-(6-Amino-5-benzothiazol-2-ylpyridin-3-yl)-pyrazol-1-yl]-pyrrolidin-2-yl}-(3-hydroxypyrrolidin-1-yl)-methanone]
IC50 (MET (human)): ≤ 100 nM
IC50 (RON (human)): ≤ 100 nM

Nc1ncc(-c2cnn([C@@H]3CN[C@H](C(=O)N4CCC4)C3)c2)cc1-c1nc2ccccc2s1 [Example 160, {(2S,4S)-4-[4-(6-Amino-5-benzothiazol-2-ylpyridin-3-yl)-pyrazol-1-yl]-pyrrolidin-2-yl}-azetidin-1-ylmethanone]
IC50 (MET (human)): ≤ 100 nM
IC50 (RON (human)): 100 to 1000 nM

Nc1ncc(-c2cnn(C3CCN(CC(=O)O)CC3)c2)cc1-c1nc2ccccc2s1 [Example 161, {4-[4-(6-Amino-5-benzothiazol-2-ylpyridin-3-yl)-pyrazol-1-yl]-piperidin-1-yl}-acetic acid]
IC50 (MET (human)): ≤ 100 nM
IC50 (RON (human)): 100 to 1000 nM

NC(=O)CN1CCC(n2cc(-c3cnc(N)c(-c4nc5ccccc5s4)c3)cn2)CC1 [Example 162, 2-{4-[4-(6-Amino-5-benzothiazol-2-ylpyridin-3-yl)-pyrazol-1-yl]-piperidin-1-yl}-acetamide]
IC50 (MET (human)): ≤ 100 nM
IC50 (RON (human)): 100 to 1000 nM

CNC(=O)CN1CCC(n2cc(-c3cnc(N)c(-c4nc5ccccc5s4)c3)cn2)CC1 [Example 163, 2-{4-[4-(6-Amino-5-benzothiazol-2-ylpyridin-3-yl)-pyrazol-1-yl]-piperidin-1-yl}-N-methylacetamide]
IC50 (MET (human)): 100 to 1000 nM
IC50 (RON (human)): 100 to 1000 nM

CN(C)C(=O)CN1CCC(n2cc(-c3cnc(N)c(-c4nc5ccccc5s4)c3)cn2)CC1 [Example 164, 2-{4-[4-(6-Amino-5-benzothiazol-2-ylpyridin-3-yl)-pyrazol-1-yl]-piperidin-1-yl}-N,N-dimethylacetamide]
IC50 (MET (human)): 100 to 1000 nM
IC50 (RON (human)): 100 to 1000 nM

Nc1ncc(-c2cnn(C3CCN(CC(=O)N4CCC4)CC3)c2)cc1-c1nc2ccccc2s1 [Example 165, 2-{4-[4-(6-Amino-5-benzothiazol-2-ylpyridin-3-yl)-pyrazol-1-yl]-piperidin-1-yl}-1-azetidin-1-ylethanone]
IC50 (MET (human)): 100 to 1000 nM
IC50 (RON (human)): 100 to 1000 nM

Nc1ncc(-c2cnn(C3CCN(CC(=O)N4CCCC4)CC3)c2)cc1-c1nc2ccccc2s1 [Example 166, 2-{4-[4-(6-Amino-5-benzothiazol-2-ylpyridin-3-yl)-pyrazol-1-yl]-piperidin-1-yl}-1-pyrrolidin-1-ylethanone]
IC50 (MET (human)): ≤ 100 nM
IC50 (RON (human)): 100 to 1000 nM

Nc1ncc(-c2cnn(C3CCN(CC(=O)N4CCC(O)C4)CC3)c2)cc1-c1nc2ccccc2s1 (stereo not drawn) [Example 167, 2-{4-[4-(6-Amino-5-benzothiazol-2-ylpyridin-3-yl)-pyrazol-1-yl]-piperidin-1-yl}-1-(3-hydroxypyrrolidin-1-yl)ethanone]
IC50 (MET (human)): ≤ 100 nM
IC50 (RON (human)): 100 to 1000 nM

Nc1ncc(-c2cnn(C3CCN(CC(=O)N4CCCCC4)CC3)c2)cc1-c1nc2ccccc2s1 [Example 168, 2-{4-[4-(6-Amino-5-benzothiazol-2-ylpyridin-3-yl)-pyrazol-1-yl]-piperidin-1-yl}-1-piperidin-1-ylethanone]
IC50 (MET (human)): 100 to 1000 nM
IC50 (RON (human)): 100 to 1000 nM

Nc1ncc(-c2cnn(C3CCN(CC(=O)N4CCC(O)CC4)CC3)c2)cc1-c1nc2ccccc2s1 [Example 169, 2-{4-[4-(6-Amino-5-benzothiazol-2-ylpyridin-3-yl)-pyrazol-1-yl]-piperidin-1-yl}-1-(4-hydroxypiperidin-1-yl)ethanone]
IC50 (MET (human)): ≤ 100 nM
IC50 (RON (human)): 100 to 1000 nM

Nc1ncc(-c2cnn(C3CCN(CC(=O)N4CCOCC4)CC3)c2)cc1-c1nc2ccccc2s1 [Example 170, 2-{4-[4-(6-Amino-5-benzothiazol-2-ylpyridin-3-yl)-pyrazol-1-yl]-piperidin-1-yl}-1-morpholin-4-ylethanone]
IC50 (MET (human)): ≤ 100 nM
IC50 (RON (human)): 100 to 1000 nM

Nc1ncc(-c2cnn(C3CCN(CC(=O)NCCO)CC3)c2)cc1-c1nc2ccccc2s1 [Example 171, 2-{4-[4-(6-Amino-5-benzothiazol-2-ylpyridin-3-yl)-pyrazol-1-yl]-piperidin-1-yl}-N-(2-hydroxyethyl)-acetamide]
IC50 (MET (human)): ≤ 100 nM
IC50 (RON (human)): 100 to 1000 nM

COCCNC(=O)CN1CCC(n2cc(-c3cnc(N)c(-c4nc5ccccc5s4)c3)cn2)CC1 [Example 172, 2-{4-[4-(6-Amino-5-benzothiazol-2-ylpyridin-3-yl)-pyrazol-1-yl]-piperidin-1-yl}-N-(2-methoxyethyl)-acetamide]
IC50 (MET (human)): 100 to 1000 nM
IC50 (RON (human)): 100 to 1000 nM

COCCN(CCOC)C(=O)CN1CCC(n2cc(-c3cnc(N)c(-c4nc5ccccc5s4)c3)cn2)CC1 [Example 173, 2-{4-[4-(6-Amino-5-benzothiazol-2-ylpyridin-3-yl)-pyrazol-1-yl]-piperidin-1-yl}-N,N-bis-(2-methoxyethyl)-acetamide]
IC50 (MET (human)): 100 to 1000 nM
IC50 (RON (human)): 100 to 1000 nM

Nc1ncc(-c2cnn([C@@H]3CN[C@@H](C(=O)O)C3)c2)cc1-c1nc2ccccc2s1 [Example 174, (2R,4S)-4-[4-(6-Amino-5-benzothiazol-2-ylpyridin-3-yl)-pyrazol-1-yl]-pyrrolidine-2-carboxylic acid]
IC50 (MET (human)): ≤ 100 nM
IC50 (RON (human)): 1000 to 20000 nM

CN(C)C(=O)[C@H]1C[C@H](n2cc(-c3cnc(N)c(-c4nc5ccccc5s4)c3)cn2)CN1 [Example 175, (2R,4S)-4-[4-(6-Amino-5-benzothiazol-2-ylpyridin-3-yl)-pyrazol-1-yl]-pyrrolidine-2-carboxylic acid dimethylamide]
IC50 (MET (human)): 100 to 1000 nM
IC50 (RON (human)): 100 to 1000 nM

Nc1ncc(-c2cnn([C@@H]3CN[C@@H](C(=O)N4CCCC4)C3)c2)cc1-c1nc2ccccc2s1 [Example 176, {(2R,4S)-4-[4-(6-Amino-5-benzothiazol-2-ylpyridin-3-yl)-pyrazol-1-yl]-pyrrolidin-2-yl}-pyrrolidin-1-ylmethanone]
IC50 (MET (human)): 100 to 1000 nM
IC50 (RON (human)): 100 to 1000 nM

Nc1ncc(-c2cnn([C@@H]3CN[C@@H](C(=O)N4CCC(O)C4)C3)c2)cc1-c1nc2ccccc2s1 (stereo partly drawn) [Example 177, {(2R,4S)-4-[4-(6-Amino-5-benzothiazol-2-ylpyridin-3-yl)-pyrazol-1-yl]-pyrrolidin-2-yl}-(3-hydroxypyrrolidin-1-yl)methanone]
IC50 (MET (human)): ≤ 100 nM
IC50 (RON (human)): 100 to 1000 nM

Nc1ncc(-c2cnn([C@@H]3CN[C@@H](C(=O)N4CCCCC4)C3)c2)cc1-c1nc2ccccc2s1 [Example 178, {(2R,4S)-4-[4-(6-Amino-5-benzothiazol-2-ylpyridin-3-yl)-pyrazol-1-yl]-pyrrolidin-2-yl}-piperidin-1-ylmethanone]
IC50 (MET (human)): 100 to 1000 nM
IC50 (RON (human)): 100 to 1000 nM

Nc1ncc(-c2cnn([C@@H]3CN[C@@H](C(=O)N4CCOCC4)C3)c2)cc1-c1nc2ccccc2s1 [Example 179, {(2R,4S)-4-[4-(6-Amino-5-benzothiazol-2-ylpyridin-3-yl)-pyrazol-1-yl]-pyrrolidin-2-yl}-morpholin-4-ylmethanone]
IC50 (MET (human)): ≤ 100 nM
IC50 (RON (human)): 100 to 1000 nM

Nc1ncc(-c2cnn(C3CNC3)c2)cc1-c1nc2ccccc2s1 [Example 181, 5-(1-Azetidin-3-yl-1H-pyrazol-4-yl)-3-benzothiazol-2-ylpyridin-2-ylamine trifluoroacetate]
IC50 (MET (human)): ≤ 100 nM
IC50 (RON (human)): 100 to 1000 nM

CN1CCN(C(=O)c2ccc(-c3cnc(N)c(-c4nc5ccccc5s4)c3)cc2)CC1 [Example 182, [4-(6-Amino-5-benzothiazol-2-ylpyridin-3-yl)phenyl]-(4-methylpiperazin-1-yl)methanone]
IC50 (MET (human)): 100 to 1000 nM
IC50 (RON (human)): 1000 to 20000 nM
